Entries after “also recorded” stand apart in the source; their conditions may differ. Positions of bridges follow the written chain, without caps; N, C: chain ends. Non-standard residues stand in square brackets, D forms with d. No end group written: not given here.
Experiments:
[1] = test system: cancer cells from canine bladder TCC clinical specimen; assay: Binding to canine bladder TCC clinical specimen cells
[2] = test system: cells from the normal specimen of the same bladder; assay: Whole cell bead binding assay, cells from normal specimen of the same bladder; design: species or system human; details: beads coated with PLZ4; same cystectomy specimen
Method: The beads were washed extensively with double-distilled water and phosphate-buffered saline (PBS) before screening. Bladder cancer cells and normal urothelial cells were detached from culture dishes with trypsin/EDTA or a Detach kit (PromoCell, Heidelberg, Germany), washed with their corresponding culture medium, resuspended at 10^6 cells/ml and incubated with OBOC beads in Petri dishes in a humidified CO2 incubator at 37° C. with shaking (60 rpm). Beads bound by cells appeared as rosettes with a central bead covered by a layer(s) of cells under a microscope. The positive beads were picked with a pipette under inverted microscope, treated with Quanidine HCl (8M, 20 min) to remove cells and proteins on beads surface, and underwent a second round of incubation with the same cells to confirm the binding. Only those beads with cell bindings at both rounds were sent for the amino acid sequencing as previously described (Peng, et al., Nat Chem Biol, (2006) 2: 381-389).
The cell surface molecules on established cell lines in culture may not be the same as those molecules on primary bladder cancer cells. It was assessed if PLZ4 could bind to bladder cancer cells from patients. Beads coated with PLZ4 could bind to primary bladder cancer cells from patients (FIGS. 3A and B). […] In one patient, both normal tissue and bladder cancer tissue from the same cystectomy specimen were available.

[3] = test system: primary bladder cancer cells from patients; assay: Whole cell bead binding assay, primary bladder cancer cells from patients; design: species or system human; details: beads coated with PLZ4; fresh bladder cancer specimens
Method: (§1) Four bladder cancer cell lines including 5637 (HTB-9), SCaBER, TCCSUP (HTB-5), and T24 (HTB-4) were purchased from the American Type Culture Collection (Manassas, Va.). The isolation, characterization and maintenance of normal urothelial cells was previously described in detail (Bagai, et al., J Biol Chem, (2002) 277: 23828-23837). Normal peripheral blood mononuclear cells were prepared by using the Ficoll-Paque gradient method from peripheral blood of healthy donors. Bladder cancer tissue obtained from cystectomy was cut into pieces, digested with collagenase at 37° C. for 1-2 hours per the manufacturer's protocol, and filtered through a 40-μm strainer to make single cell suspension. Tumor cells were then isolated with Ficoll-Paque gradient method (800 g, 30 min at 4° C.). Informed consent was obtained from each patient or healthy donor before specimens were collected.
The beads were washed extensively with double-distilled water and phosphate-buffered saline (PBS) before screening. […]
The cell surface molecules on established cell lines in culture may not be the same as those molecules on primary bladder cancer cells. It was assessed if PLZ4 could bind to bladder cancer cells from patients. […]

[4] = test system: vascular endothelial cells; assay: Binding to vascular endothelial cells
[5] = test system: K9TCC-PU-In; assay: Binding affinity by PLZ4-biotin / avidin-HRP on fixed K9TCC-PU-In cells; design: species or system canine; details: restated in b239 without cell line, read-out: Kd50
Method: FIG. 8A-B. Binding affinity and biological effects of PLZ4 against canine TCC cell lines. A. Binding affinity of PLZ4 against K9TCC-PU and K9TCC-PU-In. Twenty thousands of K9TCC-PU and K9TCC-PU-In were seeded in 96 well plates. After culture for 24 hours, cells were fixed and incubated with different concentrations of PLZ4-biotin for 1.5 hours following avidin-HRP for another 1 hour. Cells treated with avidin-HRP only were served as background control. The color was developed using TMB substrate and read by ELISA readers. The experiment was performed in triplicates and repeated for 3 times. The mean value of the 3 experiments were shown. B. Biological effects of PLZ4 on canine TCC cell lines. Ten thousand K9TCC-PU-In and K9TCC-PU cells were seeded in the 96 well plates and treated with increasing concentrations of PLZ4 or PBS for 2 days. The cell proliferation assay was assessed by WST-8 assay per manufacturer's protocol. Cells treated with PBS were used as 100% control. Each group was performed in triplicate, repeated for 3 times. Mean values at each concentration are presented.
To further quantify the binding affinity, K9TCC-PU and K9TCC-PU-In cells were seeded in 96 well plates, fixed, and incubated with increasing concentrations of PLZ4-biotin followed by avidin-HRP. […]

[6] = test system: peripheral blood mononuclear cells (PBMC); assay: Whole cell bead binding assay, PBMC; design: species or system human; details: peptide on beads
Method: as §1
The beads were washed extensively with double-distilled water and phosphate-buffered saline (PBS) before screening. Bladder cancer cells and normal urothelial cells were detached from culture dishes with trypsin/EDTA or a Detach kit (PromoCell, Heidelberg, Germany), washed with their corresponding culture medium, resuspended at 10^6 cells/ml and incubated with OBOC beads in Petri dishes in a humidified CO2 incubator at 37° C. with shaking (60 rpm). […]

[7] = test system: bladder cells from a dog with chronic cystitis; assay: Whole cell binding assay of Example 2, chronic cystitis bladder cells; design: species or system canine; details: PLZ4 beads
Method: (§2) This experiment was repeated 3 times for cell lines. […] 5637 human bladder cancer cell line; b. […] The average diameter of the beads is 90 μm. […] This experiment was repeated for 3 times. (200×)
(§3) To determine the binding of PLZ4 to canine TCC cell lines, whole cell binding assay was performed. PLZ4 was synthesized on TentaGel S NH2 resin beads (Rapp Polymere Gmbh, Germany) (Pegram, et al., J Clin Oncol (1998) 16:2659-2671), and incubated with single suspensions of five different canine carcinoma cell lines including K9TCC-PU, K9TCC-PU-AxA, K9TCC-PU-In, K9TCC-PU-AxC, and K9TCC-PU-Nk (kindly provided by Deborah Knapp at Purdue University, West Lafayette, Ind., USA) at 10^6 cells/ml. The negative control was normal urothelial cells obtained from dogs that were euthanized due to non-bladder-related disorders. Human bladder cancer cell line, 5637 were served as the positive control. If PLZ4 bound to cells in suspension, then the bead surface was covered with cells. Over 95% of the bead surface was covered with 5637 and K9TCC cells (FIG. 7A-a and b, respectively).

[8] = test system: parental K562 cells or cells transfected other integrins; assay: Bead binding to parental K562 cells or cells transfected with other integrins; details: OBOC beads bearing PLZ4
Method: Here, OBOC beads bearing PLZ4 peptides on the surface were incubated with K562 cells transfected with various integrins. K562 cells express endogenous a501 integrin. […] Several other ligands obtained from the initial screening also contain the DGR motif. […] To identify which amino acids are involved in determining cell binding and binding specificity, “alanine walk” was performed combined with the rainbow bead coding methods (Luo, et al., J Comb Chem, (2008) 10: 599-604). The amino acids aspartic acid (D, the X2 position), arginine (R, X4) and phenylalanine (F, X7) are important for cell binding. Replacement of any of these amino acids with alanine completely abolished the binding of the peptides to 5637 cells (FIG. 6B). […] Methionine at the X5 position could be replaced to many other amino acids without compromising the binding affinity. Based on this analysis, the three amino acids (D, G and R) at the N-terminus together with the two amino acids (G and F) at the C-terminus determine the binding specificity. Therefore, the binding pocket may be in the clover shape: one for the N-terminal three amino acids, one for the C-terminal two amino acids and a middle pocket. So w the depth of the middle binding pocket by adding different numbers of glycine residue to the X5 position. […]

[9] = test system: Human bladder cancer cell line 5637; assay: Whole cell binding assay of Example 2, 5637 positive control; details: PLZ4 beads, 10^6 cells/ml
Method: as §2, §3

cQDGRMGFc ([dC]QDGRMGF[dC]; disulfide 1-9 (inferred)) [PLZ4, bladder cancer-specific ligand peptide]
binding to primary canine bladder cancer cells from a clinical specimen [1]: could bind to primary canine bladder cancer cells; also recorded: could bind to cancer cells from one canine bladder TCC clinical specimen | binding to cells from the normal specimen of the same bladder [2]: not to the cells from the normal specimen | binding to primary bladder cancer cells from patients [3]: could bind to cells from all 5 fresh bladder cancer specimens | binding to vascular endothelial cells [4]: did not bind | Kd [5]: 10.3 µM | binding to peripheral blood mononuclear cells [6]: did not bind | binding to bladder cells from a dog with chronic cystitis [7]: no cell binding | binding to parental K562 cells or cells transfected with other integrins [8]: not to the parental K562 cells or cells transfected other integrins | bead surface covered with cells [9]: Over 95%

Source: patent US10335365B2, “Bladder cancer specific ligand peptides” (The Regents of the University of California, priority 2009, dated 2019)
